The source of these data is patent US8507488B2, “Fused nitrogen containing heterocycles and compositions thereof as kinase inhibitors” (IRM LLC, priority 2008, dated 2013).

Like-named read-outs stand apart in the source and are kept apart here. Where only a bound is given, the exact number is not on record here.

For experiment [1], the target named is T1, full length rTrkA and mNGF (Rattus norvegicus, UniProt P35739).
T1 construct: co-expressing full length rTrkA and mNGF; expressed in transfected cells; host or cells: Ba/F3 cells
Kind of experiment: Inhibition of proliferation of Ba/F3 cells co-expressing full length rTrkA and mNGF (BaF3/TrkA-NFG). The format is cell-based. To be noted: BaF3 TRKA-NGF cells, CTG readout.

The subject of the next experiment is parental BaF3 cells. In words: Proliferation of parental (untransformed) Ba/F3 cells maintained with IL3. The format is cell-based, murine. The conditions noted are these: read-out: Ba/F3 IC 50. Here is the method:
(§1) Test compounds were dissolved in DMSO (10 mM) and transferred into 1.4 mL flat bottom or V-shaped Matrix tubes carrying a unique 2D matrix chip by individual compound hubs. The numbers of these chips were distinctively linked to the individual compound identification numbers. The stock solutions were stored at −20° C. if not used immediately. For the test procedure the vials were defrosted and identified by a scanner whereby a working sheet is generated that guides the subsequent working steps.
(§2) Compound dilutions were made in 384 well plates. This format enabled the assay of maximally 28 individual test compounds at 12 concentrations (single points) including 2 reference compounds. The dilution protocol included the production of pre-dilution plates, master plates and assay plates: • Compound plates: 30 μL of individual compound (10 mM) DMSO solution including standard compound were transferred into columns 1 and 13 of a 384 well plate. 20 μL of DMSO were added to the rest of the wells and the compounds were serially diluted (1:3) by transferring 10 μL from a well in column 1 or 13 to the next well in column 2 or 14 respectively and successively with the help of a Minitrack robot. • Assay plates: Identical assay plates were then prepared by adding […] each of compound dilutions of the compound plates into 384-well “assay plates”. In the following the compounds were mixed with 50 μL of assays components (cells or enzyme) and tested for their inhibitory activity.
(§3) The cell line used is the luciferase expressing Ba/F3 murine hematopoietic progenitor cell line transformed with human Tel-TrkA, Tel-TrkB or Tel-TrkC cDNAs (Ba/F3 EN A/B/C). These cells maintained in RPMI/10% fetal bovine serum (RPMI/FCS) supplemented with penicillin 50 mg/mL, streptomycin 50 mg/mL and L-glutamine […]. Untransformed Ba/F3 cells were similarly maintained with the addition 5 ng/ml of murine recombinant IL3. 50 μl of a Ba/F3 or Ba/F3 EN A/B/C cell suspension were plated in Greiner 384 well microplates (white)) at a density of 2000 cells per well. 50 nl of serially diluted test compound (10-0.0001 mM in DMSO solution) is added to each well. The cells were incubated for 48 hours at 37° C., 5% CO2. 25 μl of Bright Glo® (Promega) luciferase substrate is added to each well. The emited luminiscence is quantified using the ACQUEST™ luminescence system (Molecular Devices). IC50 values were calculated by linear regression analysis of the percentage inhibition of each compound at 12 concentrations.

A further experiment concerns the target T2, Tel-TrkB (Homo sapiens, UniProt Q16620).
T2 construct: dimerization domain of Tel (ETV6) transcription factor (fusion partner, human ETV6 P41212); expressed in transfected cells; host or cells: luciferase expressing Ba/F3 murine hematopoietic progenitor cells; the other entry of the earlier key: ETV6 (P41212, Transcription factor ETV6)
In words: Inhibition of proliferation of Ba/F3 cells expressing Tel-TrkB (BaF3/Tel-TrkB). The format is cell-based. The conditions noted are these: Ba/F3 Tel-TrkB cells; read-out: Ba/F3 Tel-TrkB IC 50. Here is the method:
as §1, §2
(§4) Compounds of Formula (I) were tested for their antiproliferative effect on Ba/F3 cells expressing either Tel-TrkA, Tel-TrkB or Tel-TrkC and an additional panel of 34 selected diverse kinases activated by fusion to the dimerizing partners Bcr or Tel (Abl, A1K, BMX, EphA3, EphB2, FGFR2, FGFR3, FGFR4, FGR, FLT1, FLT3, FLT4, FMS, IGF1R, InsR, JAK1, JAK2, JAK3, KDR, Kit, Lck, Lyn, MER, MET, PDGFRb, RET, RON, Ros-1, Src, Aurora, TIE2, TYK2, Tie1, ZAP70). The antiproliferative effect of these compounds on the different cell lines and on the non transformed cells were tested at 12 different concentrations of 3-fold serially diluted compounds in 384 well plates as described above (in media lacking IL3). The IC50 values of the compounds the different cell lines were determined from dose response curves.
as §3, with “50 nl of serially diluted test compound (10-0.0001 mM in DMSO solution) is added to each well.” left out

The target of the next experiment is T3, Tel-TrkA (Homo sapiens, UniProt P04629).
T3 construct: dimerization domain of Tel (ETV6) transcription factor (fusion partner, human ETV6 P41212); expressed in transfected cells; host or cells: luciferase expressing Ba/F3 murine hematopoietic progenitor cells; the other entry of the earlier key: ETV6 (P41212, Transcription factor ETV6)
In words: Inhibition of proliferation of Ba/F3 cells expressing Tel-TrkA (BaF3/Tel-TrkA, luciferase/Bright Glo readout). The format is cell-based. The conditions noted are these: read-out: Ba/F3 Tel-TrkA IC 50. The procedure: as §1, §2, §4
as §3, with “50 nl of serially diluted test compound (10-0.0001 mM in DMSO solution) is added to each well.” left out

The mark [2] stands for this setting: Mus musculus, BaF3, parental Ba/F3 cells.

T1 sequence (P35739 33-799): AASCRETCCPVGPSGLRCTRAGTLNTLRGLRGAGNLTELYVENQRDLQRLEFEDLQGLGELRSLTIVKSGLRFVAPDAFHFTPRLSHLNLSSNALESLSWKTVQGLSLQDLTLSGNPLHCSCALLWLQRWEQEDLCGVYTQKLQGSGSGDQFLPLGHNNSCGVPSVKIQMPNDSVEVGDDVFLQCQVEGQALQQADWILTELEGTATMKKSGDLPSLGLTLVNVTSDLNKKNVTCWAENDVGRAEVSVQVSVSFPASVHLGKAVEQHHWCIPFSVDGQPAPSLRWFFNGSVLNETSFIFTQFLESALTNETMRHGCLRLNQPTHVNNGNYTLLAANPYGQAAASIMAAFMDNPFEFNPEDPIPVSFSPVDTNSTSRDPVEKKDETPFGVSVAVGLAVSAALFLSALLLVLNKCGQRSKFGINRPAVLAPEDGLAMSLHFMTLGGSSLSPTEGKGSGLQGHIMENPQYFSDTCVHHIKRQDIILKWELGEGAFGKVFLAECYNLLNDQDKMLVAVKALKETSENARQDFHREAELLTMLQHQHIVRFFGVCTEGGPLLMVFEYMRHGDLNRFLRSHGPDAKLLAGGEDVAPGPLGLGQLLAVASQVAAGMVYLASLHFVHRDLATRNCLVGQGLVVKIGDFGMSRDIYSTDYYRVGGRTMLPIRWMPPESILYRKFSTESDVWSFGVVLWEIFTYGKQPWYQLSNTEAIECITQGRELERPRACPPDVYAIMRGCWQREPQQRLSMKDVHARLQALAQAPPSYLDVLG
T1 sequence (P01139 122-241 partner): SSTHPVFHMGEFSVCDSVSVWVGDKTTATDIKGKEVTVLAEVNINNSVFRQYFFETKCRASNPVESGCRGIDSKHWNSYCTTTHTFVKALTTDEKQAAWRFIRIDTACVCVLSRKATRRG
T2 sequence (Q16620 538-822 limits assumed): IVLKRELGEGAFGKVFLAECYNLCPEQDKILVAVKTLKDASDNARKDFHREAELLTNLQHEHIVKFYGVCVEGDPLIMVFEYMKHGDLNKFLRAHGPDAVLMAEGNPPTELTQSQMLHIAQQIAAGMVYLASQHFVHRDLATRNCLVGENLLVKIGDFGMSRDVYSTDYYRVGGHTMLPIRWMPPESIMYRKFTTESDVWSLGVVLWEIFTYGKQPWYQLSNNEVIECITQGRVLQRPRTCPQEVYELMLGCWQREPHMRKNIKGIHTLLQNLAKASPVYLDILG
T3 sequence (P04629 510-796 limits assumed): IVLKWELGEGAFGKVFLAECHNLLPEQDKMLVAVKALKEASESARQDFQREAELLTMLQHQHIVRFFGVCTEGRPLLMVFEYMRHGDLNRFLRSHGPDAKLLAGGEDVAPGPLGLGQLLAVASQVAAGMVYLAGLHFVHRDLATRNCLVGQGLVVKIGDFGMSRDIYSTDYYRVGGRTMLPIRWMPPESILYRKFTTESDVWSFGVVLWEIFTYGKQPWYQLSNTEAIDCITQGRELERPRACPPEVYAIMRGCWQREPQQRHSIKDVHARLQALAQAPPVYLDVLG

Take `Fc1cccc(C2COCCN2c2ccc3ncc(-c4cccc(N5CCOCC5)n4)n3n2)c1` (centres unmarked) [Table 2-Compound 10]: the “BaF3 TRKA-NGF CTG IC 50” value in experiment [1] came to 8.8 nM. Moreover, the IC50 in the experiment with parental BaF3 cells (setting [2]) was more than 10000 nM; on Tel-TrkB, 6.2 nM; at Tel-TrkA, 6.9 nM.
For `Fc1ccc(N2CCN(c3cccc(-c4cnc5ccc(N6CCC[C@@H]6c6cccc(F)c6)nn45)n3)CC2)cc1` [Table 7-Compound 257], in that order: 101 nM, more than 11000 nM, 289 nM and 130 nM.
For the molecule `O=C1CCN(c2cccc(-c3cnc4ccc(N5CCC[C@@H]5c5cccc(F)c5)nn34)n2)CC1` [Table 7-Compound 181], the “BaF3 TRKA-NGF CTG IC 50” value in experiment [1] is 14 nM. The IC50 in the experiment on parental BaF3 cells (setting [2]) was more than 11000 nM; on Tel-TrkB it was 8 nM; on Tel-TrkA, 7 nM.
For `CC(C)NC(=O)CN1CCN(c2cccc(-c3cnc4ccc(N5CCCC5c5cccc(F)c5)nn34)n2)CC1` (centres unmarked) [Table 7-Compound 96], in that order: 3 nM, 5990 nM, 2 nM and 1 nM.
In the same order, the values of `OC1CCN(c2cncc(-c3cnc4ccc(N5CCCC5c5cccc(F)c5)nn34)n2)CC1` (centres unmarked) [Table 7-Compound 121] are 4.88 nM, more than 10000 nM, 3.02 nM and 3.34 nM.
With `OC1CCN(c2nccc(-c3cccc(-c4cnc5ccc(N6CCCC6c6cccc(F)c6)nn45)n3)n2)CC1` (centres unmarked) [Table 7-Compound 57], in experiment [1], the “BaF3 TRKA-NGF CTG IC 50” value stood at 20 nM. The IC50 amounted to 6900 nM with parental BaF3 cells (setting [2]), 20 nM on Tel-TrkB and 20 nM on Tel-TrkA.
Turning to `O=C(NCCO)c1ccc(-c2cnc3ccc(N4CCCC4c4cccc(F)c4)nn23)cn1` (centres unmarked) [Table 3-Compound 19], the “BaF3 TRKA-NGF CTG IC 50” value in experiment [1] was 370 nM. Moreover, the values for the IC50 in the experiment on parental BaF3 cells (setting [2]), on Tel-TrkB and on Tel-TrkA were more than 10000 nM, 540 nM and 1020 nM, respectively.
With `Fc1ccc(F)c(C2CCCN2c2ccc3ncn(-c4cccc(-c5ncc[nH]5)c4)c3n2)c1` (centres unmarked) [Table 1-Compound 4], the IC50 at Tel-TrkB amounted to 790 nM; on Tel-TrkA it was 1600 nM.
As to `OCC1CCCN(c2cccc(-c3cnc4ccc(N5CCCC5c5cccc(F)c5)nn34)n2)C1` (centres unmarked) [Table 7-Compound 98], the “BaF3 TRKA-NGF CTG IC 50” value in experiment [1] came out at 13 nM. Also, the values for the IC50 with parental BaF3 cells (setting [2]), at Tel-TrkB and on Tel-TrkA were more than 11000 nM, 9 nM and 6 nM, respectively.
For `OCCN1CCN(c2cccc(-c3cnc4ccc(N5CCCC5c5cccc(F)c5)nn34)n2)CC1` (centres unmarked) [Table 7-Compound 100], in that order: 3 nM, 4380 nM, 2 nM and 2 nM.
In the same order, the values of `Fc1cccc(C2CCCN2c2ccc3ncc(-c4cccc(-c5ccnc(N6CC7(COC7)C6)n5)n4)n3n2)c1` (centres unmarked) [Table 7-Compound 136] are 39 nM, 4320 nM, 24 nM and 13 nM.
In the case of `CC(C)c1noc(C2CCN(c3cccc(-c4cnc5ccc(N6CCOCC6c6cccc(F)c6)nn45)n3)CC2)n1` (centres unmarked) [Table 7-Compound 21], in experiment [1], the “BaF3 TRKA-NGF CTG IC 50” value is 121 nM. In addition, the IC50 in the experiment on parental BaF3 cells (setting [2]) was more than 10000 nM; on Tel-TrkB, 67 nM; on Tel-TrkA, 90 nM.
For `CN(C)c1nccc(-c2cccc(-c3cnc4ccc(N5CCCC5c5cccc(F)c5)nn34)n2)n1` (centres unmarked) [Table 7-Compound 58], in that order: 210 nM, more than 10000 nM, 150 nM and 115 nM.
Regarding `CC(C)NC(=O)CN1CCN(c2cccc(-c3cnc4ccc(N5CCCC5c5cccc(F)c5)nn34)n2)CC1` (centres unmarked) [Table 4-Compound 32], the “BaF3 TRKA-NGF CTG IC 50” value in experiment [1] turned out to be 2.6 nM. The results for the IC50 in the experiment with parental BaF3 cells (parental Ba/F3 cells), on Tel-TrkB and on Tel-TrkA were 4990 nM, 1.5 nM and 1.4 nM, respectively.
As to `Fc1cccc(C2CCCN2c2ccc3ncc(-c4cccc(-c5cnc(N6CCOCC6)nc5)n4)n3n2)c1` (centres unmarked) [Table 7-Compound 54], the “BaF3 TRKA-NGF CTG IC 50” value in experiment [1] came to 41 nM. For the same molecule, the IC50 with parental BaF3 cells (setting [2]) was more than 10000 nM; at Tel-TrkB, 37 nM; on Tel-TrkA it was 28 nM.
In the case of `Fc1cccc(C2CCCN2c2ccc3ncc(-c4cccc(OCCN5CCOCC5)n4)n3n2)c1` (centres unmarked) [Table 4-Compound 25], in experiment [1], the “BaF3 TRKA-NGF CTG IC 50” value was 28 nM. Besides, the IC50 with parental BaF3 cells (setting [2]) was found to be 7500 nM; at Tel-TrkB, 7.1 nM; at Tel-TrkA, 10 nM.
In the same order, the values of `CN(C)CCNC(=O)C1CCN(c2cccc(-c3cnc4ccc(N5CCCC5c5cccc(F)c5)nn34)n2)CC1` (centres unmarked) [Table 7-Compound 115] are 16 nM, 4840 nM, 14 nM and 14 nM.
Regarding `OCCN1CCN(c2cccc(-c3cnc4ccc(N5CCOCC5c5cccc(F)c5)nn34)n2)CC1` (centres unmarked) [Table 7-Compound 5], the “BaF3 TRKA-NGF CTG IC 50” value in experiment [1] was 6.4 nM. For the same molecule, the results for the IC50 in the experiment with parental BaF3 cells (setting [2]), on Tel-TrkB and at Tel-TrkA were 4820 nM, 6.2 nM and 3.8 nM, respectively.
In the case of `CNC(=O)OC1CCN(c2cccc(-c3cnc4ccc(N5CCC[C@@H]5c5cccc(F)c5)nn34)n2)CC1` [Table 7-Compound 185], in experiment [1], the “BaF3 TRKA-NGF CTG IC 50” value worked out at 119 nM. In addition, the IC50 in the experiment with parental BaF3 cells (setting [2]) was more than 11000 nM; on Tel-TrkB, 70 nM; at Tel-TrkA it was 64 nM.
With `O=C(C1CCN(c2cccc(-c3cnc4ccc(N5CCOCC5c5cccc(F)c5)nn34)n2)CC1)N1CCC(O)C1` (centres unmarked) [Table 7-Compound 26], the “BaF3 TRKA-NGF CTG IC 50” value in experiment [1] amounted to 12 nM. Moreover, the results for the IC50 in the experiment with parental BaF3 cells (setting [2]), at Tel-TrkB and on Tel-TrkA were more than 10000 nM, 7.5 nM and 7.7 nM, respectively.
On to `Fc1cccc(C2CCCN2c2ccc3ncc(-c4cc5ccccc5nc4F)n3n2)c1` (centres unmarked) [Table 7-Compound 153], for which the “BaF3 TRKA-NGF CTG IC 50” value in experiment [1] turned out to be 698 nM. In addition, the IC50 with parental BaF3 cells (setting [2]) was more than 11000 nM; at Tel-TrkB, 244 nM; at Tel-TrkA, 346 nM.
As to `O=C(c1ccc(-c2cnc3ccc(N4CCCC4c4cccc(F)c4)nn23)cn1)N1CCC(O)CC1` (centres unmarked) [Table 3-Compound 26], the “BaF3 TRKA-NGF CTG IC 50” value in experiment [1] was 370 nM. Besides, the IC50 was more than 10000 nM in the experiment with parental BaF3 cells (setting [2]), 540 nM at Tel-TrkB and 1020 nM on Tel-TrkA.
